In US8664236B2, “1H-pyrrolo[2,3 b]-pyridine derivatives” (Merck Patent GmbH, priority 2010, dated 2014):
Values after ≈ are worked out from the molar mass of the structure shown. Where two headings read alike, the source gives them in different places.

Experiments:
PDK1 (His6-PDK1(Δ1-50)) = PDK1 (His6-PDK1(Δ1-50)) (Homo sapiens (Human), UniProt O15530); experiment: Test for the inhibition of PDK1 (enzymatic, flashplate, 33P-ATP); assay type: biochemical
Protocol: 4. Test for the Inhibition of PDK1
The experimental batches are carried out in a flashplate system with 384 wells/microtitration plate.
The test substances are employed in corresponding concentrations (if desired in a dilution series). The control is carried out without test substance. The reaction is stopped using standard methods and washed. The activity of the kinase is measured via the incorporated radioactivity in top count. In order to determine the non-specific kinase reaction (blank value), the experimental batches are carried out in the presence of 100 nM staurosporine.
The radioactivity (decompositions per minute) of the blank value (no use of test substance in the presence of staurosporine) is subtracted from all other radioactivity values. The controls (kinase activity without test substance) are set equal to 100 percent and all other radioactivity values (after subtracting the blank value) are expressed set in relation thereto (for example in % of the control).

Solubility = assay type: physicochemical; details: Table I
[1] = target: PDK1 kinase in PC3 cells (PKB phosphorylation at Thr 308) (Homo sapiens (Human), UniProt O15530); experiment: Cellular testing of PDK1 kinase inhibitors in PC3 cells (Luminex, phospho-T308-PKB); assay type: cell-based
Chain of PDK1 kinase in PC3 cells (PKB phosphorylation at Thr 308) (O15530 whole entry): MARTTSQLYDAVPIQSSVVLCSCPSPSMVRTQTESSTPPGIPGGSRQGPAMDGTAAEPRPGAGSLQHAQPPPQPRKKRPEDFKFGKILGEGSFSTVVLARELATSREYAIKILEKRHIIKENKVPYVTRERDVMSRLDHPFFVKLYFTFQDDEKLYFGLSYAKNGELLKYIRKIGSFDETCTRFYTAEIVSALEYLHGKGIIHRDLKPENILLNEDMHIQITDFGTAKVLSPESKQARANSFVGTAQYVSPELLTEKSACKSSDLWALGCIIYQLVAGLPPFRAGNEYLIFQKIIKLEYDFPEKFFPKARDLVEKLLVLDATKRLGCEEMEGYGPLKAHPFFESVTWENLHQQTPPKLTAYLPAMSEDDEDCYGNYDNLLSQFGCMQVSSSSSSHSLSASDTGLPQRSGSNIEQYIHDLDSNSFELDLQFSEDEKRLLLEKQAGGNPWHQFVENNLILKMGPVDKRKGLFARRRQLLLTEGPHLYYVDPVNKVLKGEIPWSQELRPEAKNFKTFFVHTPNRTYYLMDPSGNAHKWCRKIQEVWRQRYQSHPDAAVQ
Protocol: Method for the Cellular Testing of PDK1 Kinase Inhibitors in PC3 Cells
The cellular assay for the determination of the PDK1 kinase activity is carried out as a Luminex assay in the 96-well format. PC3 cells are sown at 20,000 cells per well in 100 μl of medium (45% of […]/45% of Ham's F12/10% of FCS) and incubated on the following day for 30 min with a serial dilution of the test substance (7 concentrations) under serum-free conditions. The cells are subsequently lysed using 90 μl of lysis buffer (20 mM tris/HCl pH 8.0, 150 mM NaCl, 1% of NP40, 10% of glycerol, 1% of phosphatase inhibitor I, 1% of phosphatase inhibitor II, 0.1% of protease inhibitor cocktail III, 0.01% of benzonase) per well, and the lysates are separated off from insoluble cell constituents by means of centrifugation through a 96-well filter plate (0.65 μm). The lysates are incubated overnight at 4° C. with shaking with Luminex beads to which an anti-total PKB antibody is coupled. The detection is carried out on the following day by addition of a phospho-T308-PKB antibody and a species-specific […] secondary antibody. The detection of phospho-T308-PKB is carried out by measurement in a Luminex100 instrument by determination of 100 events per cavity in a measurement time of 60 sec. […] The values of the batches treated with test substance are calculated therefrom as percentage of control, and IC50 values are determined by means of RS1.

[2] = Table I comparison, read-out: PDK1 inhibition assay enzymatic IC50
[3] = enzymatic PDK1 inhibition assay, read-out: enzymatic IC50
[4] = PKB phosphorylation at Thr 308 in PC3 cells, read-out: cellular IC50
[5] = Table I comparison, values in nM, read-out: PDK1 inhibition assay cellular IC50
[6] = Table I comparison, values given in μM, read-out: PDK1 inhibition assay cellular IC50

Chain of PDK1 (His6-PDK1(Δ1-50)) (O15530 51-556): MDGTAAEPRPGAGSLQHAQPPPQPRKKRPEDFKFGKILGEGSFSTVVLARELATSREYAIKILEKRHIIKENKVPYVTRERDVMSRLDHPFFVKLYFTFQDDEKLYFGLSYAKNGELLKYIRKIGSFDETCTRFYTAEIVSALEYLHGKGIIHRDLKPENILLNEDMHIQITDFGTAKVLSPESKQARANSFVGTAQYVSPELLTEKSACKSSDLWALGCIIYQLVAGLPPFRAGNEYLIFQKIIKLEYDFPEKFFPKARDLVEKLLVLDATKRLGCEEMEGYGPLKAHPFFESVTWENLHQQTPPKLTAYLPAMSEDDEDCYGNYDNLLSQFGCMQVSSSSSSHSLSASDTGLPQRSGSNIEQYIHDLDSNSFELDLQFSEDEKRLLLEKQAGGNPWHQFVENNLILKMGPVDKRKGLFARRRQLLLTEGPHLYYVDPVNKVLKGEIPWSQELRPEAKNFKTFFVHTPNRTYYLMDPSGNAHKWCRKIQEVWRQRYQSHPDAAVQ

Row | SMILES | IC50 (PDK1 (His6-PDK1(Δ1-50)); [2]) [nM] | IC50 (PDK1 (His6-PDK1(Δ1-50)); [3]) [nM] | solubility (Solubility) [µg/mL] | IC50 [1, 4] [nM] | IC50 [1, 5] [nM] | IC50 [1, 6] [nM]
1 | Cn1cc(-c2cnc3[nH]cc(-c4cc(C5(c6ccccc6)CCCC5)nc(N)n4)c3c2)cn1 [A6, 4-[5-(1-Methyl-1H-pyrazol-4-yl)-1H-pyrrolo[2,3-b]pyridin-3-yl]-6-(1-phenylcyclopentyl)pyrimidin-2-ylamine] | 130 | 130 | < 1 | 625 | – | 625
2 | CC(C)n1cc(-c2cnc3[nH]cc(-c4cc(C5(O)CCCC5)nc(N)n4)c3c2)cn1 [reference compound] | 61 | – | 8 (≈ 19.8 µM) | – | – | 3500
3 | CC(=O)NCCCc1cc(-c2c[nH]c3ncc(-c4cnn(C(C)C)c4)cc23)nc(N)n1 [reference compound] | 240 | – | > 46 | – | – | > 30000
4 | CC(C)n1cc(-c2cnc3[nH]cc(-c4cc(N(C)c5ccccc5Cl)nc(N)n4)c3c2)cn1 [A19, N4-(2-Chlorophenyl)-6-[5-(1-isopropyl-1H-pyrazol-4-yl)-1H-pyrrolo[2,3-b]pyridin-3-yl]-N4-methylpyrimidine-2,4-diamine] | – | 30 | – | 400 | – | –
5 | CC(C)n1cc(-c2cnc3[nH]cc(-c4cc(C(C)(O)c5ccccc5)nc(N)n4)c3c2)cn1 (centres unmarked) [reference compound] | 54 | – | < 1 | – | 492 | –
6 | CN(c1cccc(Cl)c1)c1cc(-c2c[nH]c3ncc(-c4cnn(C)c4)cc23)nc(N)n1 [A8, N4-(3-Chlorophenyl)-N4-methyl-6-[5-(1-methyl-1H-pyrazol-4-yl)-1H-pyrrolo[2,3-b]pyridin-3-yl]pyrimidine-2,4-diamine] | – | 51 | – | 200 | – | –
7 | CC(=O)NCCCN(c1ccccc1)c1cc(-c2c[nH]c3ncc(-c4cnn(C)c4)cc23)nc(N)n1 [A43, N-[3-({2-Amino-6-[5-(1-methyl-1H-pyrazol-4-yl)-1H-pyrrolo-[2,3-b]pyridin-3-yl]pyrimidin-4-yl}phenylamino)propyl]acetamide] | 22 | 22 | – | 430 | 430 | –

Second part, the compound after the results:

Row | IC50 (PDK1 (His6-PDK1(Δ1-50)); [2]) [nM] | IC50 (PDK1 (His6-PDK1(Δ1-50)); [3]) [nM] | solubility (Solubility) [µg/mL] | IC50 [1, 4] [nM] | IC50 [1, 5] [nM] | IC50 [1, 6] [nM] | SMILES
8 | 13 | 13 | 1 (≈ 2.34 µM) | 250 | 250 | – | Cn1cc(-c2cnc3[nH]cc(-c4cc(N(CCO)c5ccccc5)nc(N)n4)c3c2)cn1 [A4, 2-({2-Amino-6-[5-(1-methyl-1H-pyrazol-4-yl)-1H-pyrrolo[2,3-b]-pyridin-3-yl]pyrimidin-4-yl}phenylamino)ethanol]
9 | – | 12 | – | 690 | – | – | CCN(c1ccccc1)c1cc(-c2c[nH]c3ncc(-c4cnn(C)c4)cc23)nc(N)n1 [A12, N4-Ethyl-6-[5-(1-methyl-1H-pyrazol-4-yl)-1H-pyrrolo[2,3-b]-pyridin-3-yl]-N4-phenylpyrimidine-2,4-diamine]
10 | – | 7 | – | 25.5 | – | – | COCCN(c1cc(-c2c[nH]c3ncc(-c4cnn(C)c4)cc23)nc(N)n1)c1ccccc1Cl [A29, N4-(2-Chlorophenyl)-N4-(2-methoxyethyl)-6-[5-(1-methyl-1H-pyrazol-4-yl)-1H-pyrrolo[2,3-b]pyridin-3-yl]pyrimidine-2,4-diamine]
11 | – | 5 | – | > 10000 | – | – | Cn1cc(-c2cnc3[nH]cc(-c4cc(N5CCOc6ccccc65)nc(N)n4)c3c2)cn1 [A27, 4-(2,3-Dihydrobenzo-1,4-oxazin-4-yl)-6-[5-(1-methyl-1H-pyrazol-4-yl)-1H-pyrrolo[2,3-b]pyridin-3-yl]pyrimidin-2-ylamine]
12 | – | 51 | – | 530 | – | – | CCN(Cc1ccccc1)c1cc(-c2c[nH]c3ncc(-c4cnn(C)c4)cc23)nc(N)n1 [A14, N4-Benzyl-N4-ethyl-6-[5-(1-methyl-1H-pyrazol-4-yl)-1H-pyrrolo[2,3-b]pyridin-3-yl]pyrimidine-2,4-diamine]
